Structures can show the parent of a compound that is named as a salt.
molecular target: T1, recombinant human DPP-1 (Cathepsin C) (Homo sapiens, UniProt P53634); test: DPP-1 Inhibition Assay (In Vitro); assay type: biochemical; details: fluorogenic substrate GR-AMC 10 uM, 0.15 nM DPP-1, pH 7.0, room temperature; average value where tested multiple times
T1 construct: made in house
Description: Test compounds were assessed for DPP-1 (Cathepsin C) inhibitory activity using a fluorogenic substrate, GR-AMC (Glycine-Arginine-amino-4-methylcoumarin, Bachem, 1-1215). The amount of amino-methylcoumarin released is proportional to the DPP-1 activity, and the reaction is monitored kinetically with a Molecular Devices plate reader using black 96-well plates.
All compounds were tested under room temperature conditions. The assay buffer consisted of 50 mM HEPES, pH 7.0, 100 mM NaCl, 2 mM glutathione (GSH), and 0.002% TWEEN 20. GSH and TWEEN 20 were added to the buffer fresh daily. Just prior to use, an in-house preparation of recombinant human DPP-1 (240 μM stock, MW 49.6 kD) was diluted 600-fold in assay buffer containing fresh 2 mM dithiothreitol (DTT) to activate the enzyme, then diluted into assay buffer (without DTT) 133-fold for a DPP-1 working solution of 3 nM. Test compounds were diluted in DMSO for 20× their final assay concentrations.
Additions to a 96-well black Costar 3915 plates were as follows: 90 μL of 11 μM GR-AMC, 5 μL test compound (followed by mixing), and 5 μL 3 nM DPP1 to start the reaction. Fluorescent reactions were monitored kinetically at 360 nm excitation, 440 nm emission on a Molecular Devices Spectramax XPS reader. The Softmax Pro software of the reader determined the initial velocity of the selected data (the first 3-5 minutes of the reaction), and the best linear regression fit of the initial kinetic data. Final assay conditions were 0.15 nM DPP-1, 10 uM GR-AMC, 50 mM HEPES, pH 7.0, 100 mM NaCl, 2 mM GSH, 0.002% TWEEN 20, 1 μM DTT, 5.0% DMSO. Initial velocity rates were plotted vs. test compound concentration by use of a four-parameter logistics equation (nonlinear regression, sigmoidal dose-response (variable slope), with fixed Hill (1.0) using GraphPad Prism® software for determination of DPP-1 IC50. Within-run assay coefficient of variation (CV) was generally <10%; between-run CV<20%.
Representative compounds of the present invention were tested according to the procedure as described above, with results as listed in Table 3, below.

T1 sequence (P53634 25-463): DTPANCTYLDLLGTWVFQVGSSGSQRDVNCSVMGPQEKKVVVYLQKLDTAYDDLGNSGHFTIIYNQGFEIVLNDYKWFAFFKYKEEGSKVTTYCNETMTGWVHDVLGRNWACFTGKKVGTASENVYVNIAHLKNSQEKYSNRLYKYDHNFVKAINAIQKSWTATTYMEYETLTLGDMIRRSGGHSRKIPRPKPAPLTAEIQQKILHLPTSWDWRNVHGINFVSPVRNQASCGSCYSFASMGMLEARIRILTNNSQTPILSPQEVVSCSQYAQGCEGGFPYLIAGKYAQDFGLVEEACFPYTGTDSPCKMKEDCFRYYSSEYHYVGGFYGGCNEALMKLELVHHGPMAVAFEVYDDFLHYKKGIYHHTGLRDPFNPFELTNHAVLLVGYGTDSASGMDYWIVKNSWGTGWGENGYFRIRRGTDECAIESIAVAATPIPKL

| IC50 | Compound |
| --- | --- |
| 2.2 µM | CN(C)C(=O)c1ccc2nc(N3CCN(C(=O)[C@@H](N)Cc4cccs4)CC3)sc2c1 [Compound 27] |
| 1.2 µM | CCOc1ccc(NC(=O)c2ccc3nc(N4CCN(C(=O)[C@@H](N)Cc5cccs5)CC4)sc3c2)cc1 [Compound 28] |
| 2.1 µM | CCCNC(=O)c1ccc2nc(N3CCN(C(=O)[C@@H](N)Cc4cccs4)CC3)sc2c1 [Compound 29] |
| 2.3 µM | N[C@@H](Cc1cccs1)C(=O)N1CCN(c2nc3ccc(C(=O)NC4CCCCC4)cc3s2)CC1 [Compound 30] |
| 1.2 µM | COc1cccc(CNC(=O)c2ccc3nc(N4CCN(C(=O)[C@@H](N)Cc5cccs5)CC4)sc3c2)c1 [Compound 31] |
| 18 µM | CC[C@H](N)C(=O)NCCNc1nc2ccccc2s1 [Compound 41, (S)-2-amino-N-(2-(benzo[d]thiazol-2-ylamino)ethyl)butanamide hydrochloride] |
| 4.7 µM | C#CC[C@H](N)C(=O)NCCNc1nc2ccccc2s1 [Compound 42] |
| 12 µM | CC[C@H](N)C(=O)NCCNc1nc2ccc(OC)cc2s1 [Compound 43, (S)-2-amino-N-(2-(6-methoxybenzo[d]thiazol-2-ylamino)ethyl)butanamide hydrochloride] |
| 3.1 µM | C#CC[C@H](N)C(=O)NCCNc1nc2ccccc2o1 [Compound 44, (S)-2-amino-N-(2-(benzo[d]oxazol-2-ylamino)ethyl)pent-4-ynamide hydrochloride] |
| ~8 µM | CC[C@H](N)C(=O)NCCNc1nc2ccccc2o1 [Compound 45] |
| 0.74 µM | N[C@@H](Cc1cccs1)C(=O)NCCNc1nc2ccccc2s1 [Compound 46, (S)-2-amino-N-(2-(benzo[d]thiazol-2-ylamino)ethyl)-3-(thiophen-2-yl)propanamide hydrochloride] |
| 0.7 µM | N[C@@H](Cc1cccs1)C(=O)NCCNc1nc2ccccc2o1 [Compound 47] |
| 0.2 µM | COc1ccc(NC(=O)c2ccc3nc(NCCN(C)C(=O)[C@@H](N)Cc4cccs4)sc3c2)cc1OC [Compound 48, (S)-2-(2-(2-amino-N-methyl-3-(thiophen-2-yl)propanamido)ethylamino)-N-(3,4-dimethoxyphenyl)benzo[d]thiazole-6-carboxamide] |

Continued, compound first:

| Compound | IC50 |
| --- | --- |
| N[C@@H](Cc1cccs1)C(=O)N1CCN(c2nc3ccccc3s2)CC1 [Compound 1] | 3.5 µM |
| N[C@@H](Cc1cccs1)C(=O)N1CCN(c2nc3ccccc3o2)CC1 [Compound 2, (S)-2-amino-1-(4-(benzo[d]oxazol-2-yl)piperazin-1-yl)-3-(thiophen-2-yl)propan-1-one hydrochloride] | 1.4 µM |
| COc1ccc(NC(=O)c2ccc3nc(N4CCN(C(=O)[C@@H](N)Cc5cccs5)CC4)sc3c2)cc1OC [Compound 3, (S)-2-(4-(2-amino-3-(thiophen-2-yl)propanoyl)piperazin-1-yl)-N-(3,4-dimethoxyphenyl)benzo[d]thiazole-6-carboxamide hydrochloride] | 0.17 µM |
| CC[C@H](N)C(=O)N1CCN(c2nc3ccc(C(=O)Nc4ccc(OC)c(OC)c4)cc3s2)CC1 [Compound 4, (S)-2-(4-(2-aminobutanoyl)piperazin-1-yl)-N-(3,4-dimethoxyphenyl)benzo[d]thiazole-6-carboxamide hydrochloride] | 3 µM |
| N[C@@H](Cc1cccs1)C(=O)N1CCN(c2nc3ccc(Br)cc3s2)CC1 [Compound 5] | 1.3 µM |
| COc1ccc(NC(=O)c2ccc3nc(N4CCN(C(=O)[C@@H](N)Cc5ccco5)CC4)sc3c2)cc1OC [Compound 6] | 2.1 µM |
| Cc1ccc(-c2ccc3nc(N4CCN(C(=O)[C@@H](N)Cc5cccs5)CC4)sc3c2)cc1 [Compound 8] | 1.1 µM |
| N[C@@H](Cc1cccs1)C(=O)N1CCN(c2nc3ccc(-c4ccc(F)c(F)c4)cc3s2)CC1 [Compound 11] | 0.97 µM |
| COc1ccc(NC(=O)c2ccc3nc(N4CCN(C(=O)[C@@H](N)Cc5ccsc5)CC4)sc3c2)cc1OC [Compound 12] | 5.6 µM |
| N[C@@H](Cc1cccs1)C(=O)N1CCN(c2nc3ccc(-c4cccnc4)cc3s2)CC1 [Compound 13] | 0.37 µM |
| N[C@@H](Cc1cccs1)C(=O)N1CCN(c2nc3ccc(-c4ccc(C(F)(F)F)cc4)cc3s2)CC1 [Compound 14, (S)-2-amino-3-(thiophen-2-yl)-1-(4-(6-(4-(trifluoromethyl)phenyl)benzo[d]thiazol-2-yl)piperazin-1-yl)propan-1-one] | 1.3 µM |
| N[C@@H](Cc1cccs1)C(=O)N1CCN(c2nc3ccc(-c4ccc(O)cc4)cc3s2)CC1 [Compound 15] | 0.22 µM |
| N[C@@H](Cc1cccs1)C(=O)N1CCN(c2nc3ccc(-c4ccccc4F)cc3s2)CC1 [Compound 16] | 0.58 µM |
| N[C@@H](Cc1cccs1)C(=O)N1CCN(c2nc3ccc(CO)cc3s2)CC1 [Compound 18, (S)-2-amino-1-(4-(6-(hydroxymethyl)benzo[d]thiazol-2-yl)piperazin-1-yl)-3-(thiophen-2-yl)propan-1-one] | 0.76 µM |
| N[C@@H](Cc1cccs1)C(=O)N1CCN(c2nc3ccc(C(=O)NC4CCCC4)cc3s2)CC1 [Compound 19, (S)-2-(4-(2-amino-3-(thiophen-2-yl)propanoyl)piperazin-1-yl)-N-cyclopentylbenzo[d]thiazole-6-carboxamide] | 0.87 µM |
| N[C@@H](Cc1cccs1)C(=O)N1CCN(c2nc3ccc(C(=O)Nc4ccc(F)cc4)cc3s2)CC1 [Compound 20] | 0.56 µM |
| N[C@@H](Cc1cccs1)C(=O)N1CCN(c2nc3ccc(CNC4CCCC4)cc3s2)CC1 [Compound 21, (S)-2-amino-1-(4-(6-((cyclopentylamino)methyl)benzo[d]thiazol-2-yl)piperazin-1-yl)-3-(thiophen-2-yl)propan-1-one] | 0.52 µM |
| CCCCNC(=O)c1ccc2nc(N3CCN(C(=O)[C@@H](N)Cc4cccs4)CC3)sc2c1 [Compound 24] | 0.82 µM |
| N[C@@H](Cc1cccs1)C(=O)N1CCN(c2nc3ccc(C(=O)O)cc3s2)CC1 [Compound 26] | 9.6 µM |
